Legend:
[1] = Pharmacokinetics and oral bioavailability in the mouse; type: in vivo; details: 10 mg/kg, oral vs IV dose-normalized AUC
[2] = tested on: Capan-1 human pancreatic cancer tumors; assay: In vivo efficacy as single agent, Capan-1 BRCA-2 mutated mouse model; details: 75 mg/kg oral, daily (schedule 1-8 or 1-10)
Source text: Balb, athymic Nu/Nu male mice, from Harlan (Italy), were maintained in agreement with the European Communities Council Directive no. 86/609/EEC concerning the protection of animals used for experimental or other scientific purposes, in cages with paper filter cover, food and bedding sterilized and acidified water. Fragments of Capan-1 human pancreatic cancer tumors were implanted subcutaneously. […] Each group included seven animals. The treatment started one day after randomization. Compound of formula (I) was administered by oral route as a methocel suspension at the indicated doses and times. Tumor dimension was measured regularly by calipers during the experiments and tumor mass was calculated as described in Simeoni M. et al., Cancer Res 64, 1094-1101 (2004).

[3] = tested on: BRCA-mutated breast, ovarian and prostate cancer; details: 19 patients with BRCA mutations and breast; cited from earlier work

| SMILES | F on AUC [1] [%] | Max TGI (%) [2] [%] | objective response rate [3] [%] |
| --- | --- | --- | --- |
| NC(=O)c1cccc2c1C(=O)N(CCN1CCc3ccccc3C1)C2 [(3), 2-[2-(3,4-dihydro-1H-isoquinolin-2-yl)-ethyl]-3-oxo-2,3-dihydro-1H-isoindole-4-carboxylic acid amide] | 30 | – | – |
| NC(=O)c1cccc2c1C(=O)N(C1CCN(C3CCCCC3)CC1)C2 [(11), 2-(1-cyclohexyl-piperidin-4-yl)-3-oxo-2,3-dihydro-1H-isoindole-4-carboxylic acid amide] | 100 | 42 | – |
| NC(=O)c1cccc2c1C(=O)N(C1CCN(Cc3ccoc3)CC1)C2 [(14), 2-(1-furan-3-ylmethyl-piperidin-4-yl)-3-oxo-2,3-dihydro-1H-isoindole-4-carboxylic acid amide] | 57 | – | – |
| NC(=O)c1cccc2c1C(=O)N(C1CCN(Cc3ccccn3)CC1)C2 [(15), 3-oxo-2-(1-pyridin-2-ylmethyl-piperidin-4-yl)-2,3-dihydro-1H-isoindole-4-carboxylic acid amide] | 68 | 54 | – |
| NC(=O)c1cccc2c1C(=O)N(C1CCN(Cc3ccc[nH]3)CC1)C2 [(16), 3-oxo-2-[1-(1H-pyrrol-2-ylmethyl)-piperidin-4-yl]-2,3-dihydro-1H-isoindole-4-carboxylic acid amide] | 37 | – | – |
| O=C(c1cc(Cc2n[nH]c(=O)c3ccccc23)ccc1F)N1CCN(C(=O)C2CC2)CC1 [Olaparib] | – | – | 47 |

— patent US11420940B2, “4-carboxamido-isoindolinone derivatives as selective parp-1 inhibitors” (NERVIANO MEDICAL SCIENCES S.r.l, priority 2012, dated 2022)
